The test system of assay [1] is λ-carrageenan induced neutrophil mediated inflammation of the footpad. The assay is described as follows: λ-carrageenan-induced footpad inflammation (footpad swelling). The class given is in vivo, BALB/c mice. To be noted: for Footpad Thickness (+/− SE): oxidised peptide. The method, then: Experimental groups of 8-10 female BALB/c mice, 8-10 weeks of age, were housed in temperature controlled rooms and given food and water ad libitum. Observations and measurements were made by an investigator blinded to the experimental group. λ-Carrageenan injection. After measuring the baseline thickness of the hind footpads with a spring-loaded engineer's micrometer, mice were injected subcutaneously in both hind paws with 340 μg of λ-carrageenan in 40 μl. 6 h., 24 h., and 48 h. after the injection of λ-carrageenan, footpads were re-measured and swelling calculated by subtracting the baseline from the experimental measurements. For each mouse, increases in right and left footpad thickness were averaged. Thymosin peptides were injected as previously described [reference 8]: (i) intraperitoneally with 100 μl of 3.50×10^−5 M peptide solution, 30 minutes before footpad injection; (ii) intradermally into the footpad with 40 μl of 8.75×10^−5 M peptide solution and λ-carrageenan at time 0, and (iii) intraperitoneally with 100 μl of 3.50×10^−5 M peptide solution, 6 h. after footpad injection. For each group, the mean increase in footpad thickness was calculated, and compared to other groups using a one-tailed Student's t-test. The experiment was repeated four times. Statistics. Groups were compared for differences in the meaning using a one-tailed Student's t test; p<0.05 was considered statistically significant.

In assay [2] the test system is DNFB-induced allergic contact dermatitis of ear skin. The assay is described as follows: DNFB allergic contact dermatitis (ACD) ear swelling assay. The format is in vivo, FVB mice. The settings on record: for ear thickness: unit not given. The method, then: Experimental groups of 8-10 female FVB mice, 8-10 weeks of age, were housed in temperature controlled rooms and given food and water ad libitum. Observations and measurements were made by an investigator blinded to the experimental group. Mice were sensitized on day 0 by epicutaneous application to razor-shaved abdominal skin of 25 μl of 0.5% DNFB in a mixture of acetone:olive oil (4:1). Before the challenge with DNFB, mice were injected (i) intraperitoneally with 100 μl of 3.50×10^−5 M thymosin peptide solution (30 minutes before DNFB) and (ii) intradermally with 40 μl of 8.75×10^−5 M peptide solution in both ears (1 min prior to DNFB challenge). On day 5, after measuring baseline ear thickness with an engineer's micrometer, mice were challenged by applying 10 μl of 0.2% DNFB in acetone:olive oil to each side of each ear. Ears were re-measured 6 h., 24 h., and 48 h. after challenge, and data expressed as the response above baseline (i.e., ear thickness 24 h. after challenge minus ear thickness immediately prior to challenge)±1 standard error of the mean (S.E.). For each mouse, increases in right and left ear thickness were averaged. The experiment was repeated twice. Statistics. Groups were compared for differences in the meaning using a one-tailed Student's t test; p<0.05 was considered statistically significant.

Assay [3] has as its system TPA-induced irritant contact dermatitis of ear skin. The assay is described as follows: TPA irritant contact dermatitis (ICD) ear swelling assay. To be noted: for ear swelling: 6 h, unit not given; for TPA Ear Thickness (+/− SE): increase over baseline. The format is in vivo, BALB/c and FVB mice. As for the experimental part: Experimental groups of 8-10 female BALB/c and FVB mice, 8-10 weeks of age, were housed in temperature controlled rooms and given food and water ad libitum. Observations and measurements were made by an investigator blinded to the experimental group.
After measuring the baseline ear thickness, naïve mice were injected intraperitoneally (IP) with either 100 μl of PBS, or 100 μl of 3.50×10^−5 M peptide solution (oxidized mTβ4 (“mTβ4-so”), or oxidized mLTβ4 (“mLTβ4-so”) [n=10 per group]). 30 minutes later, mice were injected intradermally with 40 μl of either PBS or 8.75×10^−5 M solution of the appropriate peptide in both ears. One minute later, 40 nmol TPA (in 10 μl acetone) was applied to the anterior side of each ear. 6 h. and 24 h. after the topical application of TPA, the ears were re-measured, and the increases in ear thickness between baseline and 6 h. and between baseline and 24 h. calculated. For each mouse, increases in right and left ear thickness were averaged.
Statistics. Groups were compared for differences in the meaning using a one-tailed Student's t test; p<0.05 was considered statistically significant.

The subject of assay [4] is human umbilical vein endothelial cells (HUVEC). The assay is described as follows: Endothelial scratch wound assay. The settings on record: for % Closure (+/− SE %): 2.0×10^-7 M peptide, ECGS 200 μg. The class given is cell-based. The text has this: The endothelial “scratch wound assay” was utilised to test the effects of mUTβ4 and mLTβ4 on the migration of endothelial cells in vitro, as described in […] et al. (1997) Thymosin beta 4 accelerates wound healing. J Invest Dermatol. 1999 September; 113(3):364-8 and Young et al., (1999) Thymosin b 4 sulfoxide is an anti-inflammatory agent generated by monocytes in the presence of glucocorticoids. Nature Medicine. 5:1424-1427. HUVECs were obtained from the Endothelial Cell Culture Core Laboratory of the Yale Skin Diseases Research Core Center (Dr. M. Kluger). Passage 3 was used, and plated at a density of 9.5×10^4 cells per well. Cells were grown to 90% confluence in 24 well plates (Corning/Costar), in M-199 media supplemented with 20% FBS, antibiotics, and endothelial cell growth supplement (ECGS). A scratch was made along the diameter of each well with a sterile blue 1 ml pipette tip (Falcon). Cells were then rinsed in MEM buffer. Thymosin peptide was added to the cells in media lacking ECGS but containing 10 mM thymidine to inhibit cell proliferation. In the experimental groups, HUVECs were given 2.0×10^-7 M peptide solution of mUTb4, or in LTb4. Control groups consisted of saline (negative control) and 200 mg of ECGS (positive control). The plates were incubated at 37° C., fixed in 2% paraformaldehyde, and stained with crystal violet at time points 9 h. and 24 h. The scratch width was measured using a microscope with a 4× objective lens connected to a digital camera and then analyzed using Scion Image 1.62 software. The percent closure of the 9 h. and 24 h. measurements was calculated by dividing by the original wound width at time zero in square pixels. For each group, the mean percent closure was calculated, based on 4 images per well, 4 wells per group.

Values joined by “and” are separate entries in the source; they are usually repeats but may differ in a detail not shown here. Equal entries are not always repeated.

For “N-LLPATMSDKPDMAEIEKFDKSKLKKTE-TQEKNPLPSKETIEQEKQAGES-C (SEQ ID NO:8) (LLPATMSDKPDMAEIEKFDKSKLKKTETQEKNPLPSKETIEQEKQAGES; listed as Homo sapiens) [LTβ4, lymphoid thymosin-β4 polypeptide, un-methionated form, chemically synthesised]”, the “suppression of footpad inflammation relative to PBS” value in assay [1] (6 h) is recorded as 21%; in assay [1] (24 h), 58%; in assay [1] (48 h), 42%. In addition, in assay [1] (24 h), the “footpad swelling compared with mice receiving PBS or UTβ4 (FIG. 2A)” value is “significantly reduced footpad swelling”. This substance returned a footpad thickness in assay [1] (24 h, unit not given) of 0.22±0.03. The Footpad Thickness (+/− SE) was determined as 0.34 ± 0.04 mm in assay [1] (Un-Methionated Thymosin Experiment (A), forty-eight hours after λ-carrageenan); 0.47 ± 0.04 mm in assay [1] (Un-Methionated Thymosin Experiment (A), six hours after λ-carrageenan, increase over baseline); 0.22 ± 0.03 mm in assay [1] (Un-Methionated Thymosin Experiment (A), twenty-four hours after λ-carrageenan). The “suppression of ACD ear swelling response relative to PBS” value in assay [2] (6 h) is on record as 17%; in assay [2] (24 h) it was 21%; in assay [2] (72 h), 24%. In assay [2] (6 h, 24 h and 72 h after challenge), the “ear swelling response compared to mice receiving PBS or UTβ4 (FIG. 4A)” value is reported as “significant reduction in ear swelling response”. Moreover, the “DNFB Ear Thickness (+/− SE)” value in assay [2] (Un-Methionated Thymosin Experiment, forty-eight hours after challenge) is reported as 15.45 ± 0.91 .01 mm; in assay [2] (Un-Methionated Thymosin Experiment, six hours after challenge), 7.83 ± 0.61 .01 mm; in assay [2] (Un-Methionated Thymosin Experiment, twenty-four hours after challenge), 18.98 ± 0.74 .01 mm. Moreover, the “thinner ears than uTβ4-so treated mice” value was determined as 22% in assay [2] (seventy-two hours), 21% in assay [2] (six hours) and 16% in assay [2] (twenty-four hours). For the same substance, the ear thickness stood at 15.45±0.91 in assay [2] (seventy-two hours), 7.83±0.61 in assay [2] (six hours) and 18.98±0.74 in assay [2] (twenty-four hours).
Take “N-MLLPATMSDKPDMAEIEIFDKSKILITE-TQEKNPLPSKETIEQEKQAGES-C (SEQ ID NO:9) (MLLPATMSDKPDMAEIEKFDKSKLKKTETQEKNPLPSKETIEQEKQAGES; listed as Homo sapiens) [mLTβ4, N-terminal methionated lymphoid thymosin-β4, chemically synthesised]”: the “suppression of footpad inflammation relative to PBS” value was found to be 50% in assay [1] (6 h), 59% in assay [1] (24 h) and 34% in assay [1] (48 h). Further, the “footpad swelling compared with mice receiving PBS or mUTβ4 (FIG. 2B)” value in assay [1] (6 h and 24 h) is listed as “significantly reduced footpad swelling”. For the same substance, the ear swelling in assay [3] was determined as 18.00±1.58. Further, the “suppression of inflammation relative to PBS-treated controls” value came out at 41% in assay [3] (6 h post-application of TPA) and 24% in assay [3] (24 h post-application of TPA). Further, the “suppression of TPA-induced ear swelling (FIG. 3)” value in assay [3] (vs PBS at 6 h and 24 h, vs mUTβ4 at 6 h) is recorded as “significantly more than PBS”. Also, the “suppression of ACD ear swelling response relative to PBS” value turned out to be 37% in assay [2] (6 h), 27% in assay [2] (24 h) and 42% in assay [2] (72 h). The “ear swelling response relative to mice that received PBS or mUTβ4 (FIG. 4B)” value in assay [2] (24 h and 72 h) was “significant reduction in ear swelling response”. Moreover, the “% Closure (+/− SE %)” value in assay [4] (nine hours) is given as 27.2 ± 1.6%; in assay [4] (nine hours, listed as mLβ), 27.2%; in assay [4] (twenty-four hours), 37.3 ± 4.4%; in assay [4] (twenty-four hours, listed as mLβ) it was 37.3%. Also, the “more closure than mTβ4-so” value in assay [4] (twenty four hours) is reported as 15.3%. For the same substance, the “effect on migration of HUVEC to close an artificial wound (FIG. 5)” value in assay [4] (vs PBS at 9 h and 24 h, vs mUTβ4 at 24 h) is listed as “significantly greater than PBS”.
Consider “N-MSDKPDMAEIEKFDKSKLKKTETQEINPL-PSIETIEQEKQAGES-C (SEQ ID NO:2) [mUTβ4]”, for which the “suppression of footpad inflammation relative to PBS” value stood at 29% in assay [1] (6 h), 45% in assay [1] (24 h) and 38% in assay [1] (48 h). Moreover, the “Footpad Thickness (+/− SE)” value was 0.51 ± 0.02 mm and 0.55 ± 0.03 mm in assay [1] (Methionated Thymosin Experiment (B), forty-eight hours after λ-carrageenan, listed as mTβ4-so); 0.36 ± 0.06 mm and 0.51 ± 0.05 mm in assay [1] (Methionated Thymosin Experiment (B), six hours after λ-carrageenan, listed as mTβ4-so); 0.38 ± 0.01 mm and 0.28 ± 0.04 mm in assay [1] (Methionated Thymosin Experiment (B), twenty-four hours after λ-carrageenan, listed as mTβ4-so). Moreover, in assay [3], the ear swelling came to 24.10±1.83. In addition, the “suppression of inflammation relative to PBS-treated controls” value in assay [3] (6 h post-application of TPA) is 21%; in assay [3] (24 h post-application of TPA) it was 13%. Besides, the “TPA Ear Thickness (+/− SE)” value in assay [3] (six hours after TPA, listed as mTβ4) was 24.10 ± 1.83 mm and 18.00 ± 1.58 mm; in assay [3] (twenty-four hours after TPA, listed as mTβ4-so), 19.00 ± 1.83 mm and 16.75 ± 1.79 mm. Besides, the “suppression of ACD ear swelling response relative to PBS” value in assay [2] (72 h) was 29%. Moreover, the “DNFB Ear Thickness (+/− SE)” value in assay [2] (Methionated Thymosin Experiment, forty-eight hours after challenge, listed as mTβ4-so) is 18.39 ± 1.67 mm and 15.11 ± 0.37 mm; in assay [2] (Methionated Thymosin Experiment, six hours after challenge, listed as mTβ4-so) it was 5.18 ± 0.78 mm and 4.39 ± 1.08 mm; in assay [2] (Methionated Thymosin Experiment, twenty-four hours after challenge, listed as mTβ4-so), 20.25 ± 1.54 mm and 16.75 ± 0.48 mm. Also, the “% Closure (+/− SE %)” value was 24% and 24.0 ± 1.1% in assay [4] (nine hours, listed as mTβ4); 21% and 21.0 ± 1.5% in assay [4] (twenty-four hours, listed as mTβ4); 21.0±1.5% in assay [4] (twenty-four hours, listed as mTβ4-so).

For the origin of these results see patent US20090317457A1, “ANTI-INFLAMMATORY AND WOUND HEALING EFFECTS OF LYMPHOID THYMOSIN B-4” (Yale University, priority 2002, published 2009).
